Experimental data: patent publication US20110201622A1, “Solid Forms Comprising A Cyclopropyl Amide Derivative” (priority 2010, published 2011)

Tests used:
[1] = Thermal gravimetric analysis (TGA); type: physicochemical
Method: Solid material obtained according to the Example 5 was analyzed by thermal techniques.

[2] = Dynamic vapor sorption (DVS) analysis; type: physicochemical; details: about ambient temperature, about 0% RH to about 90% RH
Method: Solid material obtained according to Example 5 was analyzed by DVS techniques. Isothermic DVS analysis was performed at about ambient temperature by increasing a sample of Form I of Compound I from about 0% RH to about 90% RH.
DVS analysis is performed on samples prepared according to standard methods using standard equipment, e.g., a DVS instrument commercially available from Surface Measurement Systems, Ltd.™(Alperton, London, UK). Samples maintained at ambient temperature are cycled between about 0% RH and about 90% RH. Percent changes in mass are recorded, which are indicative of moisture sorption and desorption.

Q: What does the source list for C[C@@H]1CN(C2CCC2)CCN1C(=O)[C@H]1C[C@@H]1c1ccc(C(N)=O)cc1 [Form I of Compound I, 4-{(1S, 2S)-2-[((R)-4-cyclobutyl-2-methylpiperazin-1-yl)carbonyl]-cyclopropyl}-benzamide]?
A: mass loss (TGA) ([1]; upon heating from about 20° C. to about 100° C.): about 0.25%; further mass loss (TGA) ([1]; upon heating from about 100° C. to about 160° C.): about 0.25%; hygroscopicity (DVS analysis) [2]: substantially nonhygroscopic
